These results are taken from patent publication US12630502B2, “Compounds, compositions and polymer films” (Fujifilm Manufacturing Europe B.V., priority 2020, dated 2026).

Where a name gives a salt, the structure may show the parent alone.

The series is described as follows: Solubility in water at 40° C. (visual or UV-spectrometry). Type of series: physicochemical. Particulars: kept overnight, 500 ppm 4OH-TEMPO.

Description: The solubility of the compounds of Formula (I) was determined visually or by UV-spectrometry. For each compound of Formula (I), three solutions were prepared at 40° C.: one solution at 30 wt %, one solution at 60 wt %, and one solution at 70 wt %. 500 ppm 4OH-TEMPO was included in all three solutions to prevent premature polymerisation. The solutions were kept in a water bath of 40° C. overnight and centrifuged prior inspection. UV spectra were recorded in a Cary™ 100 UV-visible spectrophotometer from Agilent Technologies using a 1 mm path length quartz cuvette.

`C=Cc1ccc(S(=O)(=O)[N-]S(=O)(=O)c2cccc(S(=O)(=O)[N-]S(=O)(=O)c3ccc(C=C)cc3)c2)cc1.[Li+].[Li+]` [XL-2, 1,3-[N-(ethenylphenylsulphonyl)benzenesulphonamide], dilithium salt]: the “Solubility in water at 40° C.” value is reported as more than 70 wt %.

For `C=Cc1ccc(S(=O)(=O)NS(=O)(=O)c2ccc(C=C)cc2)cc1` [XL-B, Benzenesulphonamide, 4-ethenyl-N-[(4-ethenylphenyl)sulphonyl]-, lithium salt], the “Solubility in water at 40° C.” value is 56 wt %.

In the case of `C=Cc1ccc(S(=O)(=O)NS(C)(=O)=O)c(C=C)c1` [XL-D, Benzenesulphonamide, 2,4-diethenyl-N-(methylsulphonyl)-, lithium salt], the “Solubility in water at 40° C.” value was more than 70 wt %.

In the case of “Divinylbenzenesulphonate, Sodium salt [DVBS-Na, reference compound]”, the “Solubility in water at 40° C.” value is on record as 8 wt %.
